Entries after “also recorded” stand apart in the source; their conditions may differ.
How the values were obtained:
[1] = clinical trials in acute heart failure and scleroderma; as high as 250 μg/kg/day; cited from earlier work
aged rat bladder [2] = experiment: Collagen staining and collagen:tissue ratio in aged and adult rat bladder sections; assay type: in vivo; settings: for collagen:tissue ratio / bladder collagen content / deposition: 400 μg/kg/day for 14 days; for bladder collagen content / deposition: aged rats (male where stated)
Description: The other bladder strip was fixed in 10% PFA, embedded in paraffin, cut 5 μm thick, stained for collagen (Sigma HT251) and examined using bright field microscopy (total mag., 400×). The images were obtained at identical conditions and color analysis was performed using the ImageJ software threshold function to discriminate collagen and smooth muscle content.
(§1) Aged (24 month) and adult (9 month) male and female F344 rats were administered recombinant human relaxin-2 (400 μg/kg/day) or saline for 14-days via subcutaneous osmotic pumps. At the end of the treatment period, bladders were isolated. Contractile function was assessed in bladder muscle strips using length-tension relationship and responses to agonists and electrical field stimulation. Bladder wall morphology was examined in histological sections stained for collagen and elastin.
(§2) Aged (24 month) and adult (9 month) male and female F344 rats (obtained through the aged rodent colony of the National Institute on Aging) were administered recombinant hRLX2 (400 μg/kg/day) or saline for 14-days via subcutaneous osmotic pumps. At the end of the treatment period, bladders were isolated and contractile function assessed in organ bath experiments using muscle strips to measure length-tension relationships and responses to agonists and electrical field stimulation. Bladder wall morphology was examined in 3 μm-thick histological sections stained for collagen and elastin. The expression of the L-type Ca^2+ channel α-subunit, Cav1.2, and relaxin receptor subtypes, RXFP1 and RXFP2, were determined by immunohistochemistry.

CaV1.2 [3] = experiment: Immunohistochemistry of L-type Ca2+ channel subunit in irradiated mouse bladders; assay type: in vivo; settings: relaxin treated, listed as relaxin
Source text: (§3) FIG. 5A-5D. Relaxin treatment improves detrusor contractility and reduces bladder fibrosis in mouse bladders with chronic stage radiation cystitis. FIG. 5A. Length-tension profiles from irradiated (9-weeks post exposure) mouse bladders with and without relaxin treatment. […] FIG. 5B. […] FIG. 5C. […] Expression of the L-type Ca^2+ channel subunit, CaV1.2, was examined by immunohistochemistry. […] FIG. 5D.
(§4) A mouse model was developed to mimic chronic radiation cystitis. As a surrogate to chronic radiation cystitis in the mouse, a laparotomy was performed where the bladder was briefly withdrawn for selective high dose (10 Gy) irradiation (FIG. 4(A)). Delivered to the pelvic region such a dose could be lethal (LD50≅8 Gy). […] Moreover, following spinal cord injury, rodents can develop detrusor-sphincter-dyssynergia (DSD) which also occurs in humans. […] This is the first application of relaxin to treat bladder dysfunction due to irradiation damage or any urinary tract disease. The data also are by far the most impressive reversal/treatment for radiation cystitis.

aged rat bladder [4] = experiment: Length-tension studies and agonist/EFS responses of bladder strips from aged and adult rats; assay type: in vivo
Description: Adult (9 months old) and aged (24 months old) Fisher 344/Brown Norway F1 (F-344) male rats were used in this study. Six out of twelve rats in each age group were treated with relaxin (400 μg/kg/day) or vehicle which were infused by osmotic mini-pumps (ALZET) for 14 days, after which bladders were excised and cut from outlet to dome along the midline ventral and dorsal aspects to form two strips.
One strip was placed in a recording chamber with oxygenated Krebs solution. The base was pinned to a fixed platform and the dome connected to a tension transducer mounted on a programmable stepper motor. Bladder strips were stretched longitudinally in 500 μm increments and baseline tension allowed to stabilize (passive tension). Three field stimulation (20 Hz, 3 sec train, 0.5 ms pulse width, 15V output) contractions were performed at each stretch to determine active force generation.
as §1, §2

RXFP1 and RXFP2 receptor = settings: Bathgate et al. 2013; cited from earlier work
Cav1.2 [5] = experiment: Immunohistochemistry of Cav1.2 in aged rat bladders; assay type: in vivo; settings: aged (24 month) rat bladders, 400 μg/kg/day for 14 days
Source text: FIG. 7. Expression of L-type Ca^2+ channels is increased in aged rat bladders following relaxin treatment. Immunohistological staining of aged (>24 month old) rat bladder sections for the L-type Ca^2+ channel al C subunit, Cav1.2α. Expression of Cav1.2α was increased in relaxin-treated rat bladders compared to sham controls, similar to that observed in irradiated mouse bladders (FIG. 5C). […] This emphasizes the heterogeneity of aging related bladder changes.
as §2

[6] = test system: irradiated mouse bladder (chronic radiation cystitis); experiment: Decerebrated cystometry with simultaneous EUS electromyography in the selective bladder irradiation (chronic radiation cystitis) mouse model; assay type: in vivo; settings: mice 9 weeks after 10 Gy selective bladder irradiation
Description: FIG. 4. Cystometric and EUS electromyographic assessment of irradiated mice with and without relaxin treatment. A. Selective bladder irradiation model. B-D. Bladder and sphincter functions were assessed using decerebrated cystometry with simultaneous electromyography (EMG; green traces) at 9 weeks following bladder irradiation.
as §4

[7] = test system: C57Bl/6 mice with chronic radiation cystitis; experiment: Urine spot analysis of irradiated mice; assay type: in vivo, mouse
Description: FIG. 16. Urine spot analysis from irradiated mice with and without hRLX2 therapy. Mice were placed in metabolic cages with Whatman paper on the floor for 2 hours between 11 AM and 2 PM without access to food and water. Upon completion, filter papers were collected and photographed under UV light.
Thus, our assessment is that the therapeutic dose of hRLX2 is likely between 80 and 400 μg/kg/day.

[8] = test system: irradiated mouse bladder detrusor; experiment: Length-tension profiles and contractile responses of irradiated mouse bladders after relaxin treatment; assay type: in vivo; settings: relaxin treated
Source text: as §3, §4

[9] = Plasma hRLX2 level in rats; assay type: in vivo; settings: rat, male; SC pump 77 μg/kg/d/14 days
irradiated mouse bladder = experiment: Histology and collagen quantification of irradiated mouse bladders; assay type: in vivo
Source text: as §3, §4

[10] = test system: aged rat prostate / urethra; experiment: Histological sections of male rat urethras at the level of the prostate (aged rats, BPH); assay type: in vivo; settings: hRLX2 treated vs control, preliminary studies
Source text: FIG. 21. Histological sections of male rat urethras—at the level of the prostate—from control and hRLX2 treated aged rats.
Benign Prostatic Hyperplasia is a non-malignant enlargement of the prostate and is a condition that frequently affects the elderly male population. BPH in humans can cause constriction of the urethra, outlet obstruction, inflammation, fibrosis and the development of LUTD (Bushman, W. A., et al.: The role of prostate inflammation and fibrosis in lower urinary tract symptoms. Am J Physiol Renal Physiol, 311: F817, 2016). […] However, the therapeutic effects of hRLX2 on BPH itself can still be evaluated in aged animal models. We propose that selective injection of hRLX2 (FIG. 20) to the lateral and ventral lobes (corresponding to the transitional zone of the human prostate) or systemic administration could be performed in aged rats or mice. Following treatment, the prostates could be evaluated histologically for morphological changes such as smooth muscle or extracellular matrix content, signs of inflammation (e.g., mast cell infiltration, edema) or epithelial damage, as that observed in preliminary studies (FIG. 21).

RXFP2 = RXFP2 (Homo sapiens, UniProt Q8WXD0); settings: cited from earlier work
Sequence of RXFP2 (Q8WXD0 whole entry, species assumed): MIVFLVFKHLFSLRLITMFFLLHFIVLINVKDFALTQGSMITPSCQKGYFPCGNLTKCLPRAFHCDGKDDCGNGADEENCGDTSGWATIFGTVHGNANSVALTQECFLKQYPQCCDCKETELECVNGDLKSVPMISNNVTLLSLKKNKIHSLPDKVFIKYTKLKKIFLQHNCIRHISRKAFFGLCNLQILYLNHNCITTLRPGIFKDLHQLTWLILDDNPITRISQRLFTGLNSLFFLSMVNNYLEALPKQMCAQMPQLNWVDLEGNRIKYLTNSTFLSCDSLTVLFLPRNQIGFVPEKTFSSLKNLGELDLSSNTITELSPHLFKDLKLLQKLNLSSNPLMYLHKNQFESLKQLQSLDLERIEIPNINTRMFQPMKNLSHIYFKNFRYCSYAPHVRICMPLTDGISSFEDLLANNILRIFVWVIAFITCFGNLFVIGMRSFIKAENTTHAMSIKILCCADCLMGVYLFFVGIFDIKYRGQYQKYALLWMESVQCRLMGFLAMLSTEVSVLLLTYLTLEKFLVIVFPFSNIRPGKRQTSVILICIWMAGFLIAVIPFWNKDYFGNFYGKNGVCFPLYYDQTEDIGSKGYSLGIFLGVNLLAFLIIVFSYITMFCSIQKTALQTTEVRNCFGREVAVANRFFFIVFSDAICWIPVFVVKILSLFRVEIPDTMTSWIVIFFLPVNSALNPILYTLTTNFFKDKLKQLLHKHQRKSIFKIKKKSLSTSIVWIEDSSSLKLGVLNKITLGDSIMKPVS

[11] = adult (9 month) male rats, relaxin vs vehicle, 400 μg/kg/day for 14 days

human relaxin-2 [hRLX2]
safety for use in humans [1]: validated its safety for use in humans | collagen:tissue ratio (aged rat bladder [2]; 9 month adult male rats, no significant difference to vehicle): 0.33±0.09 | size of each bladder layer and collagen distribution (aged rat bladder [2]; 9 month old rats, sham vs relaxin treated): not significantly different | collagen:tissue ratio (aged rat bladder [2]; 24 month aged male rats, p<0.05): 0.36±0.08 | bladder collagen content / deposition (aged rat bladder [2]): decreased by hRLX2 treatment | bladder collagen content / deposition (aged rat bladder [2]; listed as relaxin): decreased following relaxin treatment; also recorded: significant decrease in collagen content; also recorded: decreases in collagen content | detrusor layer thickness and collagen infiltration (aged rat bladder [2]; aged rats, relaxin treated vs shams): increased detrusor layer thickness and less collagen infiltration compared to shams | CaV1.2 expression in the detrusor (CaV1.2 [3]): returned by relaxin treatment; also recorded: an increase in the expression of Cav1.2α | compliance and force generation (aged rat bladder [4]; 24 month-old Fischer F-344 rats, 400 μg/kg/day sc ALZET pumps, 2 weeks (Example 2)): substantial increases in both compliance and force generation | active tension generation (aged rat bladder [4]; [11]): increased active tension generation compared to controls | passive tension profile (aged rat bladder [4]; [11]): no significant difference | passive tension profile (aged rat bladder [4]; aged (24 month) rats, male where stated, 400 μg/kg/day sc for 14 days): return of passive tension profiles comparable to adults | passive tension profile (aged rat bladder [4]; aged (24 month) rats, male where stated, 400 μg/kg/day sc for 14 days, listed as Relaxin): return of passive tension profiles comparable to adults | passive tension profile (aged rat bladder [4]; aged (24 month) rats, male where stated, 400 μg/kg/day sc for 14 days, listed as relaxin): passive tension began increasing at a smaller degree of stretch compared to relaxin treated animals; also recorded: decreased the passive tension profile to that of adult animals | responses to contractile agonists (ABMA and oxotremorine-M) or depolarization (KCl and EFS) (aged rat bladder [4]; aged and adult rat bladders, relaxin vs sham): no significant change | tissue compliance (aged rat bladder [4]; aged female rats, 400 μg/kg/day for 14 days): nor was it significantly altered | active tension generation (aged rat bladder [4]; aged rats, relaxin vs vehicle/sham, 400 μg/kg/day for 14 days): equivocal; also recorded: no significant changes | affinity, RXFP1 versus RXFP2 (RXFP1 and RXFP2 receptor): greater for the RXFP1 than the RXFP2 receptor | Cav1.2 expression in the detrusor layer (Cav1.2 [5]): increased in aged rat bladders following hRLX2 treatment | Cav1.2 expression in the detrusor layer (Cav1.2 [5]; listed as Relaxin): increased expression of L-type Ca^2+ channels | Cav1.2 expression in the detrusor layer (Cav1.2 [5]; listed as relaxin): increased; also recorded: increases in smooth muscle expression of Cav1.2α | EUS electromyogram: guarding reflex and bursting ([6]; relaxin 400 μg/kg/day sc for 2 weeks from week 7): recovered with relaxin treatment; also recorded: return of a normal guarding reflex and bursting | cystometry: voiding function and bladder compliance ([6]; relaxin 400 μg/kg/day sc mini-pump for 2 weeks from week 7): abolished overflow incontinence with a return of voiding function and improved bladder compliance | urine spot analysis: number of spots and voided volumes ([7]; irradiated mice (10 Gy), 50 μg/kg/day sc osmotic pump, two weeks): small decrease in the number of spots and increase of voided volumes | urine spot analysis: voiding pattern ([7]; irradiated mice (10 Gy), 400 μg/kg/day): voiding pattern identical to those of non-irradiated controls | urine spot analysis: voided volumes and number of spots ([7]; irradiated mice, dose not given): increased voided volumes and decreased the number of spots, restoring normal bladder function | active tension / active force generation (length-tension profile) ([8]; 9 weeks post exposure): reversed by relaxin treatment to a profile similar to non-irradiated control mouse bladders; also recorded: increased active force generation | passive tension (length-tension profile) ([8]; 9 weeks post exposure): reversed by relaxin treatment to a profile similar to non-irradiated control mouse bladders; also recorded: reversed by relaxin | responses to purinergic agonist (ABMA), depolarization (KCl) or electrical field stimulation (EFS) [8]: no significant change | contractile response of the detrusor to oxotremorine-M (cholinergic response) ([8]; listed as Relaxin): increased the contractile response of the detrusor to muscarinic receptor agonist, oxotremorine-M | contractile response of the detrusor to oxotremorine-M (cholinergic response) ([8]; listed as relaxin): an increase in the cholinergic response | Plasma level, exogenous [9]: 5,042 ♂ pg/ml | bladder wall histology (urothelium, lamina propria, detrusor layer) (irradiated mouse bladder; relaxin treated): intact urothelium, normal lamina propria and increased thickness of the detrusor layer | collagen content (irradiated mouse bladder; relaxin vs sham treated): significant decrease in collagen content; also recorded: decreased collagen content | prostatic urethra histology (inflammation, columnar epithelium disruption, collagen infiltration, internal urethral sphincter damage) [10]: prevented these adverse changes

B1: insulin-like peptide-3 (protein, listed as Homo sapiens)
chain: MDPRLPAWALVLLGPALVFALGPAPTPEMREKLCGHHFVRALVRVCGGPRWSTEARRPATGGDQRESHSVSQAGLKLLSSSNPPTLTFQSVGISDVSCYSGWRDDICSMGWWPTVISRWDLACSPCPRPLTITATTVQLPPTLHATAASVAVPNKTC
affinity for RXFP2 (RXFP2): highest affinity for RXFP2
